Test results published in patent US10202361B2, “Pyridazinones as herbicides” (E I DU PONT DE NEMOURS AND COMPANY, priority 2014, dated 2019).
Read-outs that look alike come from different tables or passages of the source.

Key:
Type in all cases: in vivo
[1] = tested on: barnyardgrass (Echinochloa crus-galli); assay: Test A pre-/postemergence greenhouse herbicide test; conditions: Echinochloa crus-galli, 240 h, 0 to 100 scale (0 no effect, 100 complete control), approx. 10 d, read-out: Plant response rating, Barnyardgrass; for pest or weed control at 125 g/ha: 125 g ai/ha; for pest or weed control at 500 g/ha: 500 g ai/ha
How it was run: (§1)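 Greenhouse pre- and postemergence treatment in loam/sand soil, test chemicals in non-phytotoxic solvent with surfactant; postemergence plants 2–10 cm, one- to two-leaf stage. Visual injury rated after approximately 10 d versus untreated controls, 0 (no effect) to 100 (complete control).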

corn (Zea mays) = assay: as above; conditions: Zea mays, 240 h, 0 to 100 scale (0 no effect, 100 complete control), approx. 10 d; for Corn plant response rating (crop injury, 0 = no effect, 100 = complete kill) at 125 g/ha: 125 g ai/ha; for Corn plant response rating (crop injury, 0 = no effect, 100 = complete kill) at 500 g/ha: 500 g ai/ha
How it was run: as §1

[2] = tested on: pigweed (Amaranthus retroflexus); assay: as above; conditions: Amaranthus retroflexus, 240 h, 0 to 100 scale (0 no effect, 100 complete control), approx. 10 d, read-out: Plant response rating, Pigweed; for pest or weed control at 125 g/ha: 125 g ai/ha; for pest or weed control at 500 g/ha: 500 g ai/ha
How it was run: as §1

[3] = tested on: blackgrass (Alopecurus myosuroides); assay: Test C pre-/postemergence greenhouse herbicide test; conditions: Alopecurus myosuroides, Blackgrass, read-out: Plant response rating; for pest or weed control at 31 g/ha: 31 g ai/ha; for pest or weed control at 62 g/ha: 62 g ai/ha; for pest or weed control at 125 g/ha: 125 g ai/ha; for pest or weed control at 250 g/ha: 250 g ai/ha
How it was run: (§2)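 Plant response is scored on a 0–100 scale, where 100 means complete control, by visual comparison with controls 13 to 15 d after greenhouse treatment. Applications are made pre- and postemergence using a surfactant-containing, non-phytotoxic solvent formulation.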

[4] = tested on: johnsongrass (Sorghum halepense); assay: as above; conditions: Sorghum halepense, Johnsongrass, read-out: Plant response rating; for pest or weed control at 31 g/ha: 31 g ai/ha; for pest or weed control at 62 g/ha: 62 g ai/ha; for pest or weed control at 125 g/ha: 125 g ai/ha; for pest or weed control at 250 g/ha: 250 g ai/ha
How it was run: as §2

[5] = tested on: morningglory (Ipomoea coccinea); assay: as above; conditions: Morningglory
How it was run: as §2

[6] = tested on: oat, wild (wild oat, Avena fatua); assay: as above; conditions: Postemergence
How it was run: as §2

[7] = tested on: pigweed (Amaranthus retroflexus); assay: as above; conditions: Amaranthus retroflexus, Pigweed, read-out: Plant response rating; for pest or weed control at 31 g/ha: 31 g ai/ha; for pest or weed control at 62 g/ha: 62 g ai/ha; for pest or weed control at 125 g/ha: 125 g ai/ha; for pest or weed control at 250 g/ha: 250 g ai/ha
How it was run: as §2

[8] = tested on: ragweed (common ragweed, Ambrosia elatior); assay: as above; conditions: Ambrosia artemisiifolia, Ragweed, read-out: Plant response rating; for pest or weed control at 31 g/ha: 31 g ai/ha; for pest or weed control at 62 g/ha: 62 g ai/ha; for pest or weed control at 125 g/ha: 125 g ai/ha; for pest or weed control at 250 g/ha: 250 g ai/ha
How it was run: as §2

[9] = tested on: wheat (winter wheat, Triticum aestivum); assay: as above; conditions: Triticum aestivum, Wheat, read-out: Plant response rating; for plant injury at 62 g/ha: 62 g ai/ha; for plant injury at 125 g/ha: 125 g ai/ha; for plant injury at 250 g/ha: 250 g ai/ha
How it was run: as §2

`Cc1cc(=O)n(-c2ccc(F)cc2)nc1Cc1ccnc(C(F)(F)F)c1` [Compound 1, 2-(4-fluorophenyl)-5-methyl-6-[[2-(trifluoromethyl)-4-pyridinyl]methyl]-3(2H)-pyridazinone] showed a pest or weed control at 125 g/ha ([1]; post-emergence, Postemergence) of 100%, a pest or weed control at 500 g/ha ([1]; post-emergence, Postemergence) of 100% and a pest or weed control at 125 g/ha ([1]; pre-emergence, Preemergence) of 100%. For the same compound, the pest or weed control at 500 g/ha ([1]; pre-emergence, Preemergence) was 100%, the Corn plant response rating (crop injury, 0 = no effect, 100 = complete kill) at 125 g/ha (corn (Zea mays); post-emergence, Postemergence) was 90% and the Corn plant response rating (crop injury, 0 = no effect, 100 = complete kill) at 500 g/ha (corn (Zea mays); post-emergence, Postemergence) was 90%. The Corn plant response rating (crop injury, 0 = no effect, 100 = complete kill) at 125 g/ha (corn (Zea mays); pre-emergence, Preemergence) was 0%, the Corn plant response rating (crop injury, 0 = no effect, 100 = complete kill) at 500 g/ha (corn (Zea mays); pre-emergence, Preemergence) was 90% and the pest or weed control at 125 g/ha ([2]; post-emergence, Postemergence) was 100%. It also gave a pest or weed control at 500 g/ha ([2]; post-emergence, Postemergence) of 100%, a pest or weed control at 125 g/ha ([2]; pre-emergence, Preemergence) of 100% and a pest or weed control at 500 g/ha ([2]; pre-emergence, Preemergence) of 100%. For the same compound, the pest or weed control at 31 g/ha ([3]; post-emergence, Postemergence) was 5%, the pest or weed control at 62 g/ha ([3]; post-emergence, Postemergence) was 5% and the pest or weed control at 125 g/ha ([3]; post-emergence, Postemergence) was 5%. For the same compound, the pest or weed control at 250 g/ha ([3]; post-emergence, Postemergence) was 5%, the pest or weed control at 31 g/ha ([3]; pre-emergence, Preemergence) was 30% and the pest or weed control at 62 g/ha ([3]; pre-emergence, Preemergence) was 30%. For the same compound, the pest or weed control at 125 g/ha ([3]; pre-emergence, Preemergence) was 90%, the pest or weed control at 250 g/ha ([3]; pre-emergence, Preemergence) was 90% and the pest or weed control at 31 g/ha ([4]; post-emergence, Postemergence) was 5%. It also gave a pest or weed control at 62 g/ha ([4]; post-emergence, Postemergence) of 5%, a pest or weed control at 125 g/ha ([4]; post-emergence, Postemergence) of 5% and a pest or weed control at 250 g/ha ([4]; post-emergence, Postemergence) of 5%. It also gave a pest or weed control at 31 g/ha ([4]; pre-emergence, Preemergence) of 35%, a pest or weed control at 62 g/ha ([4]; pre-emergence, Preemergence) of 60% and a pest or weed control at 125 g/ha ([4]; pre-emergence, Preemergence) of 85%. For the same compound, the pest or weed control at 250 g/ha ([4]; pre-emergence, Preemergence) was 100%, the Plant response rating ([5]; Postemergence, 31 g ai/ha) was 60 and the Plant response rating ([5]; Postemergence, 125 g ai/ha) was 70. For the same compound, the Plant response rating ([5]; Postemergence, 250 g ai/ha) was 70, the Plant response rating ([5]; Preemergence, 31 g ai/ha) was 50 and the Plant response rating ([5]; Preemergence, 62 g ai/ha) was 90. For the same compound, the Plant response rating ([5]; Preemergence, 125 g ai/ha) was 100, the Plant response rating ([5]; Preemergence, 250 g ai/ha) was 100 and the Plant response rating ([6]; 31 g ai/ha) was 5. The Plant response rating ([6]; 62 g ai/ha) was 5, the Plant response rating ([6]; 125 g ai/ha) was 5 and the Plant response rating ([6]; 250 g ai/ha) was 5. It also gave a pest or weed control at 31 g/ha ([7]; post-emergence, Postemergence) of 35%, a pest or weed control at 62 g/ha ([7]; post-emergence, Postemergence) of 55% and a pest or weed control at 125 g/ha ([7]; post-emergence, Postemergence) of 65%. It also gave a pest or weed control at 250 g/ha ([7]; post-emergence, Postemergence) of 85%, a pest or weed control at 31 g/ha ([7]; pre-emergence, Preemergence) of 100% and a pest or weed control at 62 g/ha ([7]; pre-emergence, Preemergence) of 100%. It also gave a pest or weed control at 125 g/ha ([7]; pre-emergence, Preemergence) of 100%, a pest or weed control at 250 g/ha ([7]; pre-emergence, Preemergence) of 100% and a pest or weed control at 31 g/ha ([8]; post-emergence, Postemergence) of 30%. The pest or weed control at 62 g/ha ([8]; post-emergence, Postemergence) was 50%, the pest or weed control at 125 g/ha ([8]; post-emergence, Postemergence) was 50% and the pest or weed control at 250 g/ha ([8]; post-emergence, Postemergence) was 60%. For the same compound, the pest or weed control at 31 g/ha ([8]; pre-emergence, Preemergence) was 25%, the pest or weed control at 62 g/ha ([8]; pre-emergence, Preemergence) was 35% and the pest or weed control at 125 g/ha ([8]; pre-emergence, Preemergence) was 70%. The pest or weed control at 250 g/ha ([8]; pre-emergence, Preemergence) was 100%, the plant injury at 31 g/ha ([9]; post-emergence, Postemergence, 31 g ai/ha) was 0% and the plant injury at 62 g/ha ([9]; post-emergence, Postemergence) was 5%. It also gave a plant injury at 125 g/ha ([9]; post-emergence, Postemergence) of 5%, a plant injury at 250 g/ha ([9]; post-emergence, Postemergence) of 5% and a plant injury at 62 g/ha ([9]; pre-emergence, Preemergence) of 5%. The plant injury at 125 g/ha ([9]; pre-emergence, Preemergence) was 15% and the plant injury at 250 g/ha ([9]; pre-emergence, Preemergence) was 70%.
